A word on the IC50: it is the midpoint of a concentration-inhibition curve. Higher therefore signals a need for much substance.

“And” between values parts separate entries of the source, which are not always exact repeats. Equal entries are not always repeated. Where two headings read alike, the source gives them in different places.

The record followed here is PMC8406801, “Naringenin Inhibits Platelet Activation and Arterial Thrombosis Through Inhibition of Phosphoinositide 3-Kinase and Cyclic Nucleotide Signaling” (Frontiers in Pharmacology, 2021).

In one test the test system is PRP. The test is described as follows: Clot retraction. Type of test: cell-based, rat. To be noted: PRP, 200, 400, and 800 μM, thrombin 1 U/mL, 15 min. The protocol:
PRP was incubated with vehicle or different concentrations of naringenin for 10 min at 37°C. Clot retraction was initiated by adding fibrinogen (400 μg/ml) and thrombin (1 U/mL), and allowed to proceed at 37°C. Images were taken 15 min later.

Test [1] has as its system VASP Ser157 phosphorylation. The test can be described thus: Immunoblotting of phospho-VASP (Ser157) in ADP-stimulated washed platelets. In kind it is cell-based, rat. To be noted: for p-VASP(Ser157) / GAPDH (Fold to ADP only) / p-VASP(Ser157) / GAPDH (raw data): ADP-stimulated, Figure 7B. The protocol: For in vitro platelet aggregation, aliquots of washed platelets were preincubated with vehicle or various concentrations of naringenin for 5 min and stimulated with ADP (10 μmol/L) under stirring at 37°C for 5 min. For ex vivo platelet aggregation, PRP was incubated at 37°C for 5 min and stimulated with ADP (5 μmol/L) under stirring at 37 °C. The platelet aggregation was terminated by adding ethylenediaminetetraacetic acid (EDTA; 10 mM). Total protein was prepared using RIPA lysis buffer and protein content was determined by bicinchoninic acid (BCA) protein assay kit. Equal amounts of platelet proteins (30 μg) were separated on 10% SDS polyacrylamide gel electrophoresis (SDS-PAGE) and then transferred to poly vinylidene difluoride (PVDF) membranes and subjected to western blot. Blots were blocked with TBS-Tween 20 containing 5% BSA and probed with primary antibodies diluted in blocking solution at 4°C overnight followed by incubation with the corresponding HRP secondary antibodies. The protein bands were visualized using enhanced chemiluminescence (ECL).
VASP is a substrate for cAMP- and cGMP- dependent protein kinases, which mediate cAMP- and cGMP-dependent inhibitory signaling in platelets, respectively. Increased cAMP levels followed by the activation of cAMP-dependent protein kinase A (PKA) phosphorylates VASP at position Ser157, whereas the elevation of cGMP leads to VASP phosphorylation at position Ser239 by cGMP-dependent protein kinase G (PKG) ([Aszódi et al., 1999]; [Li et al., 2003a]). To further examine whether naringenin modulates cAMP- or cGMP-mediated inhibitory signaling, the phosphorylation of VASP (Ser157 and Ser239) in washed platelets on stimulation with ADP were measured in the absence or presence of naringenin (100, 200, 400, and 800 μM). […] To further confirm the antiplatelet effects of naringenin through PKA-dependent signaling, the effects of naringenin on platelet aggregation were measured in the presence of PKG inhibitor (Rp-8-Br-PET-cGMPS) and PKA inhibitor (H89).
FIGURE 7 Naringenin promotes VASP phosphorylation. The effects of naringenin on phosphorylation of VASP (at positions Ser 157 and Ser239) were measured in washed platelets upon stimulation with ADP (10 μmol/L) by western blotting (A). The blots shown are representative of three separate experiments. The phosphorylation levels were quantified by ImageJ 1.47v software. The level of phosphorylation obtained with vehicle control (0 μM) was taken as 1 (B,C). R represents the phosphorylation level in resting platelets. Data are expressed as means ± SD (n = 3). *p < 0.05, ***p < 0.001 compared with the vehicle control group. VASP phosphorylation at Ser239 was also analyzed in washed platelets incubated with 5 μmol/L PKA (H89), 30 μmol/L PKG (Rp-8-Br-PET-cGMPS), or 5 μmol/L PKC (GF109203X) inhibitors before treatment with naringenin (D). Washed platelets were incubated with vehicle or naringenin (200 μmol/L) at 37°C in the presence or absence of 5 μmol/L PKA (H89) or 30 μmol/L PKG (Rp-8-Br-PET-cGMPS) inhibitors. After treatment, platelets were stimulated with ADP (10 μmol/L) to trigger aggregation (E). Data are expressed as means ± SD (n = 6). ***p < 0.001 compared with the ADP-treated group, ^# p < 0.05, ^### p < 0.001 compared with naringenin alone or H89 alone.
(In western blotting, separated proteins are transferred to a membrane and probed.)

A further test deals with washed rat platelets. The test is described as follows: Thrombin (0.2 U/mL)-induced aggregation of washed platelets. Type of test: cell-based. To be noted: for Aggregation (%) / Aggregation % of control: washed platelets, single replicates; for Aggregation (%): raw data. The protocol:
Washed rat platelets were prepared as described previously ([Gao et al., 2011]) with a minor modification. Briefly, rat blood was drawn from the abdominal aorta into the siliconized vacutainers containing 1:9 (v/v) 3.8% sodium citrate, supplemented with 100 ng/ml prostaglandin E1 (PGE1) and centrifuged at 300 × g for 6 min at room temperature. Platelet-rich plasma (PRP) was obtained, and after the addition of 100 ng/ml PGE1, platelets were pelleted at 900 × g for 10 min. Platelets were washed once in Tyrode’s buffer (12 mM NaHCO3, 138 mM NaCl, 5.5 mM glucose, 2.9 mM KCl, 2 mM MgCl2, 0.42 mM NaH2PO4, 10 mM HEPES, pH 7.4) containing 100 ng/ml PGE1, and finally resuspended in Tyrode’s buffer containing 0.02 U/mL apyrase to a final concentration of 4×10^8 cells/mL. Washed platelets were preincubated with vehicle (0.4% dimethyl sulfoxide) or various concentrations of naringenin in the presence of 2 mM CaCl2 for 5 min at 37°C, and then further stimulated by ADP (10 μM), thrombin (0.2 U/mL) or collagen (2 μg/ml). The maximum platelet aggregation rate was detected within 5 min with continuous stirring.
FIGURE 1 Effects of naringenin and naringin on platelet aggregation. Chemical structure of naringin (A) and naringenin (B). The effects of naringin (C) or naringenin (D) on PRP were measured following stimulation with 10 μmol/L ADP. Rat washed platelet aggregation performed with or without different concentrations of naringin (E) or naringenin (F) was recorded after stimulation with 10 μmol/L ADP. Similarly, Washed platelet aggregation performed with vehicle or various concentrations of naringenin was recorded after stimulation with 0.2 U/mL thrombin (G) or 2 μg/ml collagen (H). WP represents washed platelets. Data are expressed as means ± SD (n = 6), the level of aggregation obtained at 5 min with vehicle-treated samples (0 μM) was taken as 100%. *p < 0.05, **p < 0.01, ***p < 0.001 compared with the vehicle control group.

Turning to `O=C1C[C@@H](c2ccc(O)cc2)Oc2cc(O)cc(O)c21` [Naringenin], the clot retraction entry in the test on PRP is recorded as “significantly reduced”. Also, the “phosphorylation of VASP at Ser157” value in test [1] (ADP-stimulated washed platelets, 100, 200, 400, and 800 μM) is on record as “did not significantly alter”. Besides, the “p-VASP(Ser157) / GAPDH (Fold to ADP only)” value is 1.6152 and 1.1716 and 1.5055 in test [1] (naringenin 200 μM); 1.6752 and 1.3720 and 1.0597 in test [1] (naringenin 400 μM); 1.6695 and 1.5145 and 1.3641 in test [1] (naringenin 800 μM). The “p-VASP(Ser157) / GAPDH (raw data)” value in test [1] (naringenin 200 μM) is 0.7758 and 0.5628 and 0.7232; in test [1] (naringenin 400 μM), 0.8047 and 0.6590 and 0.5090; in test [1] (naringenin 800 μM), 0.8019 and 0.7275 and 0.6552. The IC50 with washed rat platelets was roughly 684 µM; in the test with washed rat platelets (Rattus norvegicus, Platelet) it was 684 ± 80.8 µM. Moreover, the “Aggregation (%)” value with washed rat platelets (100 μM) was 77.1% and 76.2% and 52.9% and 66.7% and 72.2% and 88.4%; with washed rat platelets (200 μM), 79.6% and 67.1% and 56.9% and 52.0% and 48.0% and 62.4%; in the test on washed rat platelets (400 μM), 77.0% and 53.3% and 68.0% and 42.9% and 66.7% and 43.5%; in the test on washed rat platelets (800 μM), 45.5% and 30.8% and 28.0% and 42.4% and 22.5% and 36.0%. Also, the “Aggregation % of control” value with washed rat platelets (100 μM) was 95.0 % of control and 93.9 % of control and 65.2 % of control and 82.2 % of control and 88.9 % of control and 108.9 % of control; in the test with washed rat platelets (200 μM) it was 98.1 % of control and 82.7 % of control and 70.1 % of control and 64.1 % of control and 59.1 % of control and 76.9 % of control; in the test on washed rat platelets (400 μM) it was 94.9 % of control and 65.7 % of control and 83.8 % of control and 52.9 % of control and 82.2 % of control and 53.6 % of control; with washed rat platelets (800 μM) it was 56.1 % of control and 37.9 % of control and 34.5 % of control and 52.2 % of control and 27.7 % of control and 44.4 % of control.
